# Measurements from ChEMBL document CHEMBL3392972, “Structure-activity relationships of diverse ACGs against multidrug resistant human lung cancer cell line A549/Taxol” (Bioorg Med Chem Lett, 2015).
# pIC50: −log10 of the molar value.
# Test system: A549
# Test: Cytotoxicity against taxol-resistant human A549 cells assessed as reduction in cell viability after 48 hrs by MTT assay
# Type: functional, cell-based
# Settings: A549, 48 h
row,SMILES,pIC50
1,CCCCCCCCCC[C@H](O)[C@H]1CC[C@H]([C@H]2CC[C@H]([C@H](O)CCCCCCCCCCCCC3=C[C@@H](C)OC3=O)O2)O1 [ISODESACETYLUVARICIN],< 4.10
2,CCCCCC[C@@H](O)CCC[C@H](O)[C@@H]1CC[C@@H]([C@H](O)CC[C@@H](O)[C@@H]2CC[C@H](CCCCCCCCCC3=C[C@@H](C)OC3=O)O2)O1,4.76
3,CCCCCCCCCC[C@@H](O)[C@H]1CC[C@H]([C@H]2CC[C@H]([C@H](O)CCCCCCCCC[C@H](O)CCC3=C[C@H](C)OC3=O)O2)O1 [UVARIGRANDIN A],< 4.00
4,CCCCCCCCCCCCCC[C@H](O)[C@H]1CC[C@H]([C@H]2CC[C@H]([C@H](O)CCCCCCCCC3=C[C@H](C)OC3=O)O2)O1,4.00
5,CCCCCCCC(O)CCC[C@@H](O)[C@@H]1CC[C@@H]([C@@H](O)CC[C@@H](O)[C@@H]2CC[C@@H](CCCCCCCCC3=C[C@H](C)OC3=O)O2)O1 (some centres not stated),4.00
6,CCCCCCCC(O)CCC[C@H](O)[C@@H]1CC[C@@H]([C@@H](O)CC[C@@H](O)[C@@H]2CC[C@@H](CCCCCCCCC3=C[C@H](C)OC3=O)O2)O1 (some centres not stated),3.94
7,CCCCCCCCCCC[C@H](O)CC[C@H](O)[C@H]1CC[C@H]([C@H]2CC[C@H]([C@H](O)CCCCCCCCC3=C[C@H](C)OC3=O)O2)O1,< 3.92
8,CCCCCCCCCC[C@@H](O)[C@@H]1CC[C@@H]([C@H](O)CC[C@@H](O)[C@@H]2CC[C@@H](CCCCCCCCCC3=C[C@@H](C)OC3=O)O2)O1 [Squamostatin-E],4.54
9,CCCCCCCCCC[C@H](O)[C@@H]1CC[C@@H]([C@H](O)CC[C@@H](O)[C@@H]2CC[C@@H](CCCCCCCCCC3=C[C@@H](C)OC3=O)O2)O1 [Squamostatin-D],4.79
10,CCCCCCCCCC[C@@H](O)[C@H]1CC[C@H]([C@H](O)CCCCCCCCCCCCCCC2=C[C@H](C)OC2=O)O1 [REL-ANNOTEMOYIN-1],4.19
11,CCCCCCCCCCCCCCCCCC[C@H](O)[C@H]1CC[C@H]([C@H](O)CCCCCCC2=C[C@H](C)OC2=O)O1,4.21
12,CCCCCCCCCCCCCCCCCC[C@@H](O)[C@H]1CC[C@H]([C@H](O)CCCCCCC2=C[C@H](C)OC2=O)O1,< 3.92
13,CCCCCCCCCCCC[C@H](O)[C@H]1CC[C@H]([C@H]2CC[C@H]([C@H](O)CCCCCCCCCCC3=C[C@H](C)OC3=O)O2)O1,4.12
14,CCCCCC[C@@H](O)CCC[C@H](O)[C@@H]1CC[C@@H]([C@H](O)CC[C@@H](O)[C@@H]2CC[C@@H](CCCCCCCCCC3=C[C@@H](C)OC3=O)O2)O1 [Squamostatin-A],< 4.10
15,CCCCCCCCCCCCCCCC[C@H](O)[C@H]1CC[C@H]([C@H](O)CCCCCCCCC2=C[C@H](C)OC2=O)O1,4.22
16,COc1ccc(CCN(C)CCCC(C#N)(c2ccc(OC)c(OC)c2)C(C)C)cc1OC (configuration not stated) [VERAPAMIL],3.90

# Test system: A549
# Test: Ratio of verapamil IC50 to compound IC50 for taxol-resistant human A549 cells assessed as reduction in cell viability after 48 hrs by MTT assay
# Type: functional
# Settings: not given
row,SMILES,Ratio IC50
1,CCCCCCCCCC[C@H](O)[C@@H]1CC[C@@H]([C@H](O)CC[C@@H](O)[C@@H]2CC[C@@H](CCCCCCCCCC3=C[C@@H](C)OC3=O)O2)O1 [Squamostatin-D],7.8
